According to ChEMBL document CHEMBL1201862, “PubChem BioAssay data set” (2004):
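Tested at 5 concentrations; 48 h exposure; 96-well plates; endpoints linearly interpolated, else capped at highest concentration. Here, GI50 denotes the concentration required for 50% inhibition of growth.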 The source made the active and inactive calls. No stated cut-off is given here; in the data, active = GI50 up to about 1.1 µM and inactive = higher.

Key:
Assay in all cases: NCI-60 cell line screen, 48 h
TK-10 = test system: TK-10
SK-MEL-5 = test system: SK-MEL-5
NCI-H522 = test system: NCI-H522
UACC-62 = test system: UACC-62
IGROV-1 = test system: IGROV-1
MDA-N = test system: MDA-N
SK-MEL-28 = test system: SK-MEL-28
SF-295 = test system: SF-295
COLO 205 = test system: COLO 205
UACC-257 = test system: UACC-257
PC-3 = test system: PC-3
HCC 2998 = test system: HCC 2998
MDA-MB-435 = test system: MDA-MB-435
OVCAR-5 = test system: OVCAR-5
A498 = test system: A498
HT-29 = test system: HT-29
ACHN = test system: ACHN
OVCAR-3 = test system: OVCAR-3
MOLT-4 = test system: MOLT-4
OVCAR-8 = test system: OVCAR-8

SMILES	GI50 (TK-10)	GI50 (SK-MEL-5)	GI50 (NCI-H522)	GI50 (UACC-62)	GI50 (IGROV-1)	GI50 (MDA-N)	GI50 (SK-MEL-28)	GI50 (SF-295)	GI50 (COLO 205)	GI50 (UACC-257)	GI50 (PC-3)	GI50 (HCC 2998)	GI50 (MDA-MB-435)	GI50 (OVCAR-5)	GI50 (A498)	GI50 (HT-29)	GI50 (ACHN)	GI50 (OVCAR-3)	GI50 (MOLT-4)	GI50 (OVCAR-8)
CCCN1C(=O)CN(S(=O)(=O)c2ccc(Cl)cc2)C1=O	> 100 µM (inactive)	> 100 µM (inactive)	> 100 µM (inactive)	> 100 µM (inactive)	> 100 µM (inactive)	> 100 µM (inactive)	> 100 µM (inactive)	> 100 µM (inactive)	> 100 µM (inactive)	> 100 µM (inactive)	> 100 µM (inactive)	> 100 µM (inactive)	> 100 µM (inactive)	> 100 µM (inactive)	> 100 µM (inactive)	> 100 µM (inactive)	> 100 µM (inactive)	> 100 µM (inactive)	–	–
COc1ccc(/C=C/C(=O)c2cc(C(C)(C)C)c(O)c(C(C)(C)C)c2)cc1OC	6.82 µM (inactive)	6.75 µM (inactive)	5.61 µM (inactive)	10 µM (inactive)	17.7 µM (inactive)	2.94 µM (inactive)	37.5 µM (inactive)	6.52 µM (inactive)	5.74 µM (inactive)	5.12 µM (inactive)	3.66 µM (inactive)	2.27 µM (inactive)	3.2 µM (inactive)	25.2 µM (inactive)	15 µM (inactive)	4.18 µM (inactive)	14.6 µM (inactive)	4.97 µM (inactive)	2.77 µM (inactive)	10.5 µM (inactive)
O=C(N/N=C\c1c(O)ccc2ccccc12)c1ccncc1	> 7.23 µM (inactive)	0.341 µM (active)	0.638 µM (active)	0.467 µM (active)	0.148 µM (active)	1.33 µM (inactive)	0.649 µM (active)	> 5.98 µM (inactive)	0.82 µM (active)	1.22 µM (inactive)	0.752 µM (active)	> 11.4 µM (inactive)	1.65 µM (inactive)	> 6.85 µM (inactive)	2.21 µM (inactive)	1.7 µM (inactive)	0.206 µM (active)	1.22 µM (inactive)	0.0313 µM (active)	0.574 µM (active)
CNNC1=NS(=O)(=O)c2cc(C#N)c(Cl)cc2S1	> 10 µM (inactive)	> 10 µM (inactive)	> 10 µM (inactive)	> 10 µM (inactive)	> 10 µM (inactive)	> 10 µM (inactive)	> 10 µM (inactive)	> 10 µM (inactive)	> 10 µM (inactive)	> 10 µM (inactive)	> 10 µM (inactive)	> 10 µM (inactive)	> 10 µM (inactive)	> 10 µM (inactive)	> 10 µM (inactive)	> 10 µM (inactive)	> 10 µM (inactive)	> 10 µM (inactive)	> 10 µM (inactive)	> 10 µM (inactive)
O=c1[nH]c(=O)n(C2CC(O)C(CO)O2)c2nc3ccc4ccccc4c3nc12 (centres undefined)	> 100 µM (inactive)	54.1 µM (inactive)	45.6 µM (inactive)	56.9 µM (inactive)	47.4 µM (inactive)	> 100 µM (inactive)	94.2 µM (inactive)	53.6 µM (inactive)	64.9 µM (inactive)	> 100 µM (inactive)	73.8 µM (inactive)	59 µM (inactive)	> 100 µM (inactive)	> 100 µM (inactive)	> 100 µM (inactive)	–	> 100 µM (inactive)	> 100 µM (inactive)	24.5 µM (inactive)	79.1 µM (inactive)
OC1C#CCSCC#C/C=C\1 (centres undefined)	> 100 µM (inactive)	–	17.8 µM (inactive)	> 100 µM (inactive)	> 100 µM (inactive)	81.3 µM (inactive)	89.5 µM (inactive)	> 100 µM (inactive)	15.2 µM (inactive)	30.9 µM (inactive)	> 100 µM (inactive)	> 100 µM (inactive)	56 µM (inactive)	> 100 µM (inactive)	76.6 µM (inactive)	65.9 µM (inactive)	> 100 µM (inactive)	> 100 µM (inactive)	–	3.72 µM (inactive)
CC1CN(CCO)CC(C)O1 (centres undefined)	> 100 µM (inactive)	> 100 µM (inactive)	> 100 µM (inactive)	> 100 µM (inactive)	> 100 µM (inactive)	> 100 µM (inactive)	> 100 µM (inactive)	> 100 µM (inactive)	> 100 µM (inactive)	> 100 µM (inactive)	> 100 µM (inactive)	> 100 µM (inactive)	> 100 µM (inactive)	> 100 µM (inactive)	> 100 µM (inactive)	> 100 µM (inactive)	> 100 µM (inactive)	> 100 µM (inactive)	> 100 µM (inactive)	> 100 µM (inactive)
COc1cccc2c1OC1(C=C2)Oc2ccccc2C(=O)N1C (centres undefined)	24.9 µM (inactive)	68.1 µM (inactive)	19.1 µM (inactive)	40.6 µM (inactive)	27.7 µM (inactive)	15 µM (inactive)	59 µM (inactive)	22.8 µM (inactive)	31.7 µM (inactive)	44.8 µM (inactive)	27.2 µM (inactive)	26.7 µM (inactive)	21.6 µM (inactive)	78.3 µM (inactive)	19.6 µM (inactive)	28.5 µM (inactive)	35.2 µM (inactive)	37.8 µM (inactive)	15.7 µM (inactive)	4.68 µM (inactive)
CSC1(C(=O)O)C2CCC3C2CCC31 (centres undefined)	> 100 µM (inactive)	> 100 µM (inactive)	> 100 µM (inactive)	> 100 µM (inactive)	> 100 µM (inactive)	> 100 µM (inactive)	> 100 µM (inactive)	> 100 µM (inactive)	> 100 µM (inactive)	> 100 µM (inactive)	> 100 µM (inactive)	> 100 µM (inactive)	> 100 µM (inactive)	> 100 µM (inactive)	> 100 µM (inactive)	> 100 µM (inactive)	> 100 µM (inactive)	> 100 µM (inactive)	> 100 µM (inactive)	> 100 µM (inactive)
OCCOCn1cc(Cn2ncc3c(SCc4ccccc4)ncnc32)nn1	> 100 µM (inactive)	30 µM (inactive)	25.4 µM (inactive)	37.1 µM (inactive)	53.2 µM (inactive)	14.4 µM (inactive)	> 100 µM (inactive)	45.1 µM (inactive)	31.3 µM (inactive)	53.7 µM (inactive)	69 µM (inactive)	51.1 µM (inactive)	15.5 µM (inactive)	79.3 µM (inactive)	34.4 µM (inactive)	38.2 µM (inactive)	99.3 µM (inactive)	44.8 µM (inactive)	14.4 µM (inactive)	91.8 µM (inactive)
O=C(Nn1c(-c2ccccc2)nc2ccccc2c1=O)c1ccc(Cl)cc1	86.3 µM (inactive)	23.4 µM (inactive)	50.6 µM (inactive)	48.3 µM (inactive)	> 100 µM (inactive)	> 100 µM (inactive)	> 100 µM (inactive)	> 100 µM (inactive)	–	> 100 µM (inactive)	66.4 µM (inactive)	> 100 µM (inactive)	91.2 µM (inactive)	> 100 µM (inactive)	45.7 µM (inactive)	> 100 µM (inactive)	94.2 µM (inactive)	91.6 µM (inactive)	59.6 µM (inactive)	> 100 µM (inactive)
Cc1ccc(-c2c(C#N)c(S)n(NS(=O)(=O)c3ccccc3)c(=O)c2C#N)cc1	21.4 µM (inactive)	25 µM (inactive)	19.5 µM (inactive)	23.9 µM (inactive)	23.7 µM (inactive)	29.7 µM (inactive)	> 100 µM (inactive)	34 µM (inactive)	38.5 µM (inactive)	61 µM (inactive)	23.5 µM (inactive)	47 µM (inactive)	23 µM (inactive)	65.9 µM (inactive)	21.2 µM (inactive)	–	28.1 µM (inactive)	49 µM (inactive)	15.9 µM (inactive)	21.2 µM (inactive)
Cc1ccc(S(=O)(=O)NC(=O)Nc2c(S(N)(=O)=O)cc(S(N)(=O)=O)c(Cl)c2Cl)cc1	> 100 µM (inactive)	> 100 µM (inactive)	> 100 µM (inactive)	> 100 µM (inactive)	> 100 µM (inactive)	> 100 µM (inactive)	> 100 µM (inactive)	> 100 µM (inactive)	–	> 100 µM (inactive)	> 100 µM (inactive)	> 100 µM (inactive)	> 100 µM (inactive)	> 100 µM (inactive)	> 100 µM (inactive)	> 100 µM (inactive)	> 100 µM (inactive)	> 100 µM (inactive)	> 100 µM (inactive)	> 100 µM (inactive)
COc1c(O)c2c(c3cc(C(=O)N4CCc5c4c(O)c(OC)c4[nH]c(C(=O)N6CC7CC78C6=CC(=O)c6[nH]cc(C)c68)cc54)[nH]c13)CCN2C(N)=O (centres undefined) [CC-1065]	0.0266 µM (active)	0.0126 µM (active)	0.0205 µM (active)	0.00187 µM (active)	–	0.237 µM (active)	0.00184 µM (active)	0.00119 µM (active)	0.00168 µM (active)	0.00352 µM (active)	0.164 µM (active)	0.114 µM (active)	0.182 µM (active)	–	0.0028 µM (active)	–	0.00298 µM (active)	0.0197 µM (active)	0.0164 µM (active)	0.000317 µM (active)
